For data set [1] the following is noted: Liquid; Ebulliometric method (Recirculating still).
Data set [2] can be described thus: refractive index (Na D-line) (dimensionless). The following applies: 293.15 K; 101.33 kPa; Liquid; Standard Abbe refractometry.

± gives the expanded uncertainty stated by the source.

Take `CCO` [ethanol]: the Normal boiling temperature in data set [1] was 78.40 ± 0.2 °C. Moreover, in data set [2], the refractive index (commonly a measure of how strongly the sample bends light) is given as 1.3608 ± 0.0009.

For `CCOC(=O)CC` [ethyl propanoate], the Normal boiling temperature in data set [1] came out at 99.10 ± 0.2 °C. The refractive index in data set [2] is on record as 1.3839 ± 0.0005.

As for `CCC(=O)O` [propanoic acid], the Normal boiling temperature in data set [1] was 141.20 ± 0.2 °C. The refractive index in data set [2] is 1.3872 ± 0.0008.

As for `O` [water], the Normal boiling temperature in data set [1] was 100.00 ± 0.2 °C. Also, the refractive index in data set [2] was 1.333 ± 0.0005.

The values above are taken from the NIST ThermoML archive (doi:10.1016/j.jct.2018.12.026).
